The values below come from patent US20240383886A1, “Protein Tyrosine Phosphatase Degraders and Methods of Use Thereof” (CALICO LIFE SCIENCES LLC, priority 2019, published 2024).

Assay [1] has as its target T1, PTPN2 (Homo sapiens, UniProt P17706).
T1 construct: expressed in transfected cells; host or cells: 293T (293T.109 HiBiT-PTPN2 line; parental 293T WT from ATCC)
T1 sequence (P17706 1-415): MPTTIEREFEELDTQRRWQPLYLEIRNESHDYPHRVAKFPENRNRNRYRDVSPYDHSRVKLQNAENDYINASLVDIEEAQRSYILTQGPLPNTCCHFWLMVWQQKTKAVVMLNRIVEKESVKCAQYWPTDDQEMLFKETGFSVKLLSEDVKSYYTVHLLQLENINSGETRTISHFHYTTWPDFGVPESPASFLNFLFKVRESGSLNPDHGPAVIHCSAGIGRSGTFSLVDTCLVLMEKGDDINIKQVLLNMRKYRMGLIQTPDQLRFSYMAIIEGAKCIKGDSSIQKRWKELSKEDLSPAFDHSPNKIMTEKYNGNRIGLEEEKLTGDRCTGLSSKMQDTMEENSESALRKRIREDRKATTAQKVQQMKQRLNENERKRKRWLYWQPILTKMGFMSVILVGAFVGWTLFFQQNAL
Briefly: HiBiT-Degradation 293T.109 PTPN2 (Nano-Glo HiBiT Lytic Assay). The following applies: 293T.109 (HiBiT-PTPN2) cells, 24.0 hours. The class given is cell-based. Summed up:
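293T cells ectopically expressing N-terminally HiBiT-tagged PTPN2 were seeded at 5000 cells/well. They were treated with an 11-point half-log titration from 10 μM, in duplicate, for 24 hours at 37° C., 5% CO2. Remaining tagged PTPN2 was quantified by lytic HiBiT luminescence against untreated and no-reagent controls.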

Assay [2] has as its system PTPN2. The assay is described as follows: HiBiT-Degradation B16F10.4 PTPN2. The class given is cell-based. Conditions: B16F10.4 cells, 24.0 hours. (In general: The HiBiT peptide binds its large partner to form an active luciferase.)

In general, DC50 refers to the concentration giving 50% degradation.

`Cn1c(=O)n(C2CCC(=O)NC2=O)c2ccc(C3CCN(CC(=O)N4CCC[C@@H](COc5ccc6cc(O)c(N7CC(=O)NS7(=O)=O)c(F)c6c5)C4)CC3)cc21` (stereo partly drawn) [Example 130, 3-[5-[1-[2-[(3R)-3-[[8-fluoro-6-hydroxy-7-(1,1,4-trioxo-1,2,5-thiadiazolidin-2-yl)-2-naphthyl]oxymethyl]-1-piperidyl]-2-oxo-ethyl]-4-piperidyl]-3-methyl-2-oxo-benzimidazol-1-yl]piperidine-2,6-dione]: the DC50 on PTPN2 [1] and in the assay with PTPN2 [2] was 50 to 200 nM in each case.
Regarding `Cn1c(=O)n(C2CCC(=O)NC2=O)c2ccc(C3CCN(CC(=O)N4CC[C@@H](COc5ccc6cc(O)c(N7CC(=O)NS7(=O)=O)c(F)c6c5)C4)CC3)cc21` (stereo partly drawn) [Example 131, 3-[5-[1-[2-[(3R)-3-[[8-fluoro-6-hydroxy-7-(1,1,4-trioxo-1,2,5-thiadiazolidin-2-yl)-2-naphthyl]oxymethyl]pyrrolidin-1-yl]-2-oxo-ethyl]-4-piperidyl]-3-methyl-2-oxo-benzimidazol-1-yl]piperidine-2,6-dione], the results for the DC50 at PTPN2 [1] and in the assay with PTPN2 [2] were 10 to 50 nM and 50 to 200 nM, respectively.
As for `Cn1c(=O)n(C2CCC(=O)NC2=O)c2ccc(Nc3ccc(NC(=O)c4ccc5c(F)c(N6CC(=O)NS6(=O)=O)c(O)cc5c4)cc3)cc21` (stereo not drawn) [Example 132], the DC50 is 50 to 200 nM at PTPN2 [1] and 200 to 1000 nM with PTPN2 [2].
In the same order, the values of `Cn1c(=O)n(C2CCC(=O)NC2=O)c2ccc(C3CCN(CC(=O)N4CC[C@H](COc5ccc6cc(O)c(N7CC(=O)NS7(=O)=O)c(F)c6c5)C4)CC3)cc21` (stereo partly drawn) [Example 133, 3-[5-[1-[2-[(3S)-3-[[8-fluoro-6-hydroxy-7-(1,1,4-trioxo-1,2,5-thiadiazolidin-2-yl)-2-naphthyl]oxymethyl]pyrrolidin-1-yl]-2-oxo-ethyl]-4-piperidyl]-3-methyl-2-oxo-benzimidazol-1-yl]piperidine-2,6-dione] are 10 to 50 nM and 50 to 200 nM.
In the same order, the values of `Cn1c(=O)n(C2CCC(=O)NC2=O)c2ccc(C3CCN(CC(=O)N4CCC[C@H](COc5ccc6cc(O)c(N7CC(=O)NS7(=O)=O)c(F)c6c5)C4)CC3)cc21` (stereo partly drawn) [Example 134, 3-[5-[1-[2-[(3S)-3-[[8-fluoro-6-hydroxy-7-(1,1,4-trioxo-1,2,5-thiadiazolidin-2-yl)-2-naphthyl]oxymethyl]-1-piperidyl]-2-oxo-ethyl]-4-piperidyl]-3-methyl-2-oxo-benzimidazol-1-yl]piperidine-2,6-dione] are 50 to 200 nM and 200 to 1000 nM.
For `Cn1c(=O)n(C2CCC(=O)NC2=O)c2ccc(C3CCN(CCn4cc(-c5ccc6cc(O)c(N7CC(=O)NS7(=O)=O)c(F)c6c5)cn4)CC3)cc21` (stereo not drawn) [Example 135, 3-[5-[1-[2-[4-[8-fluoro-6-hydroxy-7-(1,1,4-trioxo-1,2,5-thiadiazolidin-2-yl)-2-naphthyl]pyrazol-1-yl]ethyl]-4-piperidyl]-3-methyl-2-oxo-benzimidazol-1-yl]piperidine-2,6-dione], in that order: 50 to 200 nM and 50 to 200 nM.
For `Cn1c(=O)n(C2CCC(=O)NC2=O)c2ccc(C3CCN(CCN4CCC[C@@H](COc5ccc6cc(O)c(N7CC(=O)NS7(=O)=O)c(F)c6c5)C4)CC3)cc21` (stereo partly drawn) [Example 137, 3-[5-[1-[2-[(3R)-3-[[8-fluoro-6-hydroxy-7-(1,1,4-trioxo-1,2,5-thiadiazolidin-2-yl)-2-naphthyl]oxymethyl]-1-piperidyl]ethyl]-4-piperidyl]-3-methyl-2-oxo-benzimidazol-1-yl]piperidine-2,6-dione], the DC50 on PTPN2 [1] and in the assay with PTPN2 [2] was 50 to 200 nM in each case.
For `Cn1c(=O)n(C2CCC(=O)NC2=O)c2ccc(C3CCN(C(=O)CN4CC[C@H](COc5ccc6cc(O)c(N7CC(=O)NS7(=O)=O)c(F)c6c5)C4)CC3)cc21` (stereo partly drawn) [Example 138, 3-[5-[1-[2-[(3S)-3-[[8-fluoro-6-hydroxy-7-(1,1,4-trioxo-1,2,5-thiadiazolidin-2-yl)-2-naphthyl]oxymethyl]pyrrolidin-1-yl]acetyl]-4-piperidyl]-3-methyl-2-oxo-benzimidazol-1-yl]piperidine-2,6-dione], the DC50 at PTPN2 [1] and with PTPN2 [2] was 50 to 200 nM throughout.
For `Cn1c(=O)n(C2CCC(=O)NC2=O)c2ccc(-c3ccc(NC(=O)NCCOc4ccc5cc(O)c(N6CC(=O)NS6(=O)=O)c(F)c5c4)cc3)cc21` (stereo not drawn) [Example 139, 1-[4-[1-(2,6-dioxo-3-piperidyl)-3-methyl-2-oxo-benzimidazol-5-yl]phenyl]-3-[2-[[8-fluoro-6-hydroxy-7-(1,1,4-trioxo-1,2,5-thiadiazolidin-2-yl)-2-naphthyl]oxy]ethyl]urea], the DC50 on PTPN2 [1] and in the assay with PTPN2 [2] was 50 to 200 nM each time.
`Cn1c(=O)n(C2CCC(=O)NC2=O)c2ccc(C3CCN(CC(=O)NCCOc4ccc5cc(O)c(N6CC(=O)NS6(=O)=O)c(F)c5c4)CC3(F)F)cc21` (stereo not drawn) [Example 140, 2-[4-[1-(2,6-dioxo-3-piperidyl)-3-methyl-2-oxo-benzimidazol-5-yl]-3,3-difluoro-1-piperidyl]-N-[2-[[8-fluoro-6-hydroxy-7-(1,1,4-trioxo-1,2,5-thiadiazolidin-2-yl)-2-naphthyl]oxy]ethyl]acetamide]: the half-maximal degradation concentration (DC50) is 50 to 200 nM at PTPN2 [1] and at least 1000 nM with PTPN2 [2].
For `Cn1c(=O)n(C2CCC(=O)NC2=O)c2ccc(C3CCN(C(=O)CN4CC[C@@H](COc5ccc6cc(O)c(N7CC(=O)NS7(=O)=O)c(F)c6c5)C4)CC3)cc21` (stereo partly drawn) [Example 141, 3-[5-[1-[2-[(3R)-3-[[8-fluoro-6-hydroxy-7-(1,1,4-trioxo-1,2,5-thiadiazolidin-2-yl)-2-naphthyl]oxymethyl]pyrrolidin-1-yl]acetyl]-4-piperidyl]-3-methyl-2-oxo-benzimidazol-1-yl]piperidine-2,6-dione], in that order: 10 to 50 nM and 50 to 200 nM.
For `Cn1c(=O)n(C2CCC(=O)NC2=O)c2ccc(N3CCC(CC(=O)N4CCC[C@@H](COc5ccc6cc(O)c(N7CC(=O)NS7(=O)=O)c(F)c6c5)C4)CC3)cc21` (stereo partly drawn) [Example 142, 3-[5-[4-[2-[(3R)-3-[[8-fluoro-6-hydroxy-7-(1,1,4-trioxo-1,2,5-thiadiazolidin-2-yl)-2-naphthyl]oxymethyl]-1-piperidyl]-2-oxo-ethyl]-1-piperidyl]-3-methyl-2-oxo-benzimidazol-1-yl]piperidine-2,6-dione], the DC50 on PTPN2 [1] was 50 to 200 nM; in the assay on PTPN2 [2] it was 200 to 1000 nM.
In the same order, the values of `Cn1c(=O)n(C2CCC(=O)NC2=O)c2ccc(N3CCC(CC(=O)N4CCC[C@H](COc5ccc6cc(O)c(N7CC(=O)NS7(=O)=O)c(F)c6c5)C4)CC3)cc21` (stereo partly drawn) [Example 143, 3-[5-[4-[2-[(3S)-3-[[8-fluoro-6-hydroxy-7-(1,1,4-trioxo-1,2,5-thiadiazolidin-2-yl)-2-naphthyl]oxymethyl]-1-piperidyl]-2-oxo-ethyl]-1-piperidyl]-3-methyl-2-oxo-benzimidazol-1-yl]piperidine-2,6-dione] are 200 to 1000 nM and 200 to 1000 nM.
Take `Cn1c(=O)n(C2CCC(=O)NC2=O)c2ccc(C3CCN(CCC(=O)N4CC[C@H](c5ccc6cc(O)c(N7CC(=O)NS7(=O)=O)c(F)c6c5)C4)CC3)cc21` (stereo partly drawn) [Example 144]: the DC50 on PTPN2 [1] was in the range of 10 to 50 nM; in the assay on PTPN2 [2] it was 50 to 200 nM.
In the same order, the values of `Cn1c(=O)n(C2CCC(=O)NC2=O)c2ccc(C3CCN(CCC(=O)N4CC[C@@H](c5ccc6cc(O)c(N7CC(=O)NS7(=O)=O)c(F)c6c5)C4)CC3)cc21` (stereo partly drawn) [Example 145] are 10 to 50 nM and 50 to 200 nM.
In the same order, the values of `Cn1c(=O)n(C2CCC(=O)NC2=O)c2ccc(C3CCN(Cc4nnc(-c5ccc6c(F)c(N7CC(=O)NS7(=O)=O)c(O)cc6c5)o4)CC3)cc21` (stereo not drawn) [Example 146, 3-[5-[1-[[5-[5-fluoro-7-hydroxy-6-(1,1,4-trioxo-1,2,5-thiadiazolidin-2-yl)-2-naphthyl]-1,3,4-oxadiazol-2-yl]methyl]-4-piperidyl]-3-methyl-2-oxo-benzimidazol-1-yl]piperidine-2,6-dione] are 10 to 50 nM and 200 to 1000 nM.
For `Cn1c(=O)n(C2CCC(=O)NC2=O)c2ccc(C3CCN(CCN4CCC[C@H](COc5ccc6cc(O)c(N7CC(=O)NS7(=O)=O)c(F)c6c5)C4)CC3)cc21` (stereo partly drawn) [Example 147, 3-[5-[1-[2-[(3S)-3-[[8-fluoro-6-hydroxy-7-(1,1,4-trioxo-1,2,5-thiadiazolidin-2-yl)-2-naphthyl]oxymethyl]-1-piperidyl]ethyl]-4-piperidyl]-3-methyl-2-oxo-benzimidazol-1-yl]piperidine-2,6-dione], in that order: 200 to 1000 nM and 200 to 1000 nM.
For `Cn1c(=O)n(C2CCC(=O)NC2=O)c2ccc(Nc3ccc(CNC(=O)c4ccc5c(F)c(N6CC(=O)NS6(=O)=O)c(O)cc5c4)cc3)cc21` (stereo not drawn) [Example 148, N-[[4-[[1-(2,6-dioxo-3-piperidyl)-3-methyl-2-oxo-benzimidazol-5-yl]amino]phenyl]methyl]-5-fluoro-7-hydroxy-6-(1,1,4-trioxo-1,2,5-thiadiazolidin-2-yl)naphthalene-2-carboxamide], the DC50 on PTPN2 [1] and in the assay with PTPN2 [2] was 200 to 1000 nM each time.
